# Measurements: paper PMC7698842, “Lanostane Triterpenoid Metabolites from a Penares sp. Marine Sponge Protect Neuro-2a Cells against Paraquat Neurotoxicity” (Molecules, 2020)
# Tests used:
# [1] = system: PQ-treated Neuro-2a cells; experiment: Propidium iodide straining of PQ-treated Neuro-2a cells (membrane permeability); type: cell-based, mouse; settings: 24 h; for decrease of fluorescence of PI-straining cells: compound 10 μM pre-incubation, PQ-treated cells
# Method: The cells (1 × 10^4 cells/well) were seeded in black 96-well plates before testing. After incubation of the cells with compounds and PQ during 24 h, PI solution (10 μg/mL) was added to each well and the plate was incubated in the dark at 37 °C for 10 min. Cells were washed with phosphate buffer saline (PBS) (BioloT, St.Peterburg, Russia) and fluorescence was measured with a Fluoroskan Ascent plate reader (Thermo Labsystems, Helsinki, Finland) at […]. All manipulations with fluorescent probes were carried out in a darkened room. The results were presented as percent of positive control data.
# [2] = DPPH radical scavenging assay (cell-free); settings: 30 min, MeOH
# Method: The 2,2-diphenyl-1-picryl-hydrazyl-hydrate (DPPH) radical scavenging activity was tested as described previously. The compounds were dissolved in MeOH, and the solutions (120 µL) were dispensed into wells of a 96-well microplate. The DPPH (Sigma-Aldrich, Steinheim, Germany) was dissolved in MeOH at a concentration of 7.5 × 10^−3 M and the solution (30 µL) was added to each well. The concentrations of tested compounds in the mixtures were 10 and 100 µM. Ascorbic acid was used as a positive control. The mixtures were shaken and left for 30 min. The absorbance of the resulting solutions was measured at λ = 520 nm with a MultiscanFC plate reader (Thermo Scientific, Waltham, MA, USA). The concentration scavenging 50% of the DPPH radical (EC50) was calculated for each compound.
# [3] = system: mitochondrial membrane potential in PQ-treated Neuro-2a cells; experiment: Mitochondrial membrane potential detection (TMRM) in PQ-treated Neuro-2a cells; type: cell-based, mouse
# Method: The cells (1 × 10^4 cells/well of a 96-well plate) were incubated with compound solutions (1 and 10 µM) during 1 h. Then, PQ was added to cell suspension to a resulting concentration of 500 µM for incubation during 1 h. Cells incubated without PQ and compounds and with PQ alone were used as positive and negative controls, respectively. The tetramethylrhodamine methyl (TMRM) (Sigma-Aldrich, St. Louis, MO, USA) solution at 500 nM was added in each well and cells were incubated for 30 min at 37 °C. The intensity of fluorescence was measured with a PHERAstar FS plate reader (BMG Labtech, Ortenberg, Germany) at λex = 540 nm and λem = 590 nm. The data were processed by MARS Data Analysis v. 3.01R2 (BMG Labtech, Ortenberg, Germany). The results were presented as percent of positive control data.
# [4] = system: PQ-treated Neuro-2a cells; experiment: Neurite outgrowth estimation in PQ-treated Neuro-2a cells; type: cell-based, mouse
# Method: Neurite outgrowth was studied as described by Li et al.. Neuro-2a cells were seeded in 6-well plates (1.6 × 10^5 cells/well) in DMEM medium containing 10% fetal bovine serum (Biolot, St. Peterburg, Russia) and 1% penicillin/streptomycin (Invitrogen, Carlsbad, CA, USA). The next day, this growth media was changed with serum-free DMEM media containing 1% penicillin/streptomycin, and cells were treated with studied compounds at a concentration of 10 µM for 1 h. After that, PQ (500 µM) was added and cells were incubated during 24 h. Cells incubated without PQ and compounds and with PQ alone were used as positive and negative controls, respectively.
# For each well, approximately 10 images were acquired randomly by scanning the wells from left to right and top to bottom using the AxioImager A1 microscope (CarlZeiss, Oberkochen, Germany). A total of ten random fields (near 350 cells in each) for each experimental group were scored for neurite outgrowth. The number of neurite-bearing cells and lengths of the individual neurites for each cell were measured using the AxioVision 4.7.1 software (CarlZeiss, Oberkochen, Germany). Length was defined as the straight-line distance from the tip of the neurite to the junction between the cell body and neurite base. In the case of branched neurites, the length of the longest branch was measured from the tip of the neurite to the cell body. In each experimental group, the average length of neurites was calculated, as well as the average number of neurites per one cell.
# [5] = system: Hsp70 level in Neuro-2a cells; experiment: Hsp70 level analysis by Western blot in Neuro-2a cells; type: cell-based, mouse; settings: for increase of Hsp70 level in PQ-treated cells: compound 10 µM 1 h, then PQ 500 µM 24 h
# Method: The Hsp70 expression was detected by Western blot analysis. Cell suspensions (1.6 × 10^5 cells/well of a 6-well plate) were seeded and treated with studied compounds at a concentration of 10 µM for 1 h. After that, PQ (500 µM) was added and cells were incubated during 24 h. Cells incubated without PQ and compounds and with PQ alone were used as positive and negative controls, respectively. Cells were washed by cold PBS (BioloT, Russia) twice and lysed by radioimmunoprecipitation assay (RIPA) buffer (BioloT, St. Peterburg, Russia). The amount of proteins was measured by the Bradford method and equal samples (25 µg) were prepared using sample buffer. Proteins were separated with sodium dodecyl sulphate (SDS) electrophoresis in 10% polyacrylamide gel. The electrophoretically separated proteins were transferred onto the polyvinylidene difluoride (PVDF) membrane Whatman (Sigma-Aldrich, St. Louis, MO, USA) using a semi-dry transfer apparatus (Helicon, Moscow, Russia). […] The peroxidase reaction was visualized by an enhanced chemiluminescence (ECL) kit according to the instructions of the manufacturer (Sigma-Aldrich, St. Louis, MO, USA) using the VersaDoc Imaging System (Bio-Rad, Hercules, CA, USA).
# [6] = Cytotoxicity toward Neuro-2a cells (MTT assay); type: cell-based, mouse; settings: mouse, Neuro-2a neuroblastoma cells, 24 h; for activity at 24 h, 10 µM: Neuro-2a cell viability, read-out: Cytotoxicity (MTT Assay) % of Control at 10 μM; for IC50 at 24 h: Neuro-2a cells
# Method: (§1) The cells of mouse neuroblastoma cell line Neuro-2a (ATCC® CCL-131™; American Type Culture Collection, Manassas, VA, USA) were cultured in Dulbecco’s modified Eagle’s medium (DMEM) containing 10% fetal bovine serum (Biolot, St. Petersburg, Russia) and 1% penicillin/streptomycin (Biolot, St. Petersburg, Russia) at 37 °C in a humidified atmosphere with 5% (v/v) CO2. Initially, cells were incubated in cultural flasks until sub-confluent (~80%). For testing, Neuro-2a cells were seeded in 96- or 6-well plates and experiments were started after 24 h.
# (§2) The cells (1 × 10^4 cells/well of a 96-well plate) were incubated with different concentrations of studied compounds during 24 h. After that, cell viability was determined by the MTT (3-(4,5-dimethylthiazol-2-yl)-2,5-diphenyltetrazolium bromide) method according to the manufacturer’s instructions (Sigma-Aldrich, St. Louis, MO, USA). Absorbance of the converted formazan was measured using a Multiskan FC microplate photometer (Thermo Scientific, Waltham, MA, USA) at λ = 570 nm. The results were presented as percent of control data, and concentration of cell viability inhibition on 50% (IC50) was calculated.
# [7] = system: ROS level in PQ-treated Neuro-2a cells; experiment: ROS level analysis in PQ-treated Neuro-2a cells (H2DCFDA); type: cell-based, mouse; settings: for concentrations at which ROS content in PQ-treated cells was reduced: tested at 1 and 10 μM
# Method: The cells (1 × 10^4 cells/well of a 96-well plate) were incubated with compound solutions (1 and 10 µM) during 1 h. Then, PQ was added to cell suspension to a resulting concentration of 500 µM for incubation during 1 h. Cells incubated without PQ and compounds and with PQ alone were used as positive and negative controls, respectively. The 20 µL of 2,7-dichlorodihydrofluorescein diacetate solution (H2DCFDA, Molecular Probes, Eugene, OR, USA) was added to each well (10 µM, final concentration) and the plate was incubated for an additional 10 min at 37 °C. The intensity of dichlorofluorescin fluorescence was measured with a PHERAstar FS plate reader (BMG Labtech, Ortenberg, Germany) at λex = 485 nm and λem = 518 nm. The data were processed by MARS Data Analysis v. 3.01R2 (BMG Labtech, Ortenberg, Germany). The results were presented as percent of positive control data.
# [8] = system: PQ-treated Neuro-2a cells; experiment: PQ-treated Neuro-2a cell viability (MTT assay); type: cell-based, mouse; settings: 24 h; for effect on PQ-treated cell viability (MTT assay): compound 1 and 10 µM, PQ 500 µM
# Method: as §2
# (§3) The cells (1 × 10^4 cells/well of a 96-well plate) were treated with studied compounds at concentrations of 1 and 10 µM for 1 h and then 500 µM of PQ (Sigma-Aldrich, St. Louis, MO, USA) was added to the neuroblastoma cells. Cells incubated without PQ and compounds and with PQ alone were used as positive and negative controls, respectively. The viability of cells was measured after 24 h using MTT and FDA methods. The results were presented as percent of positive control data.
# [9] = system: PQ-treated Neuro-2a cells; experiment: PQ-treated Neuro-2a cell viability (FDA assay); type: cell-based, mouse; settings: 24 h
# Method: A stock solution of the fluorescein diacetate (FDA) (Sigma-Aldrich, St. Louis, MO, USA) in DMSO (1 mg/mL) was prepared. The cells (1 × 10^4 cells/well) were seeded in black 96-well plates before testing. After incubation of the cells with compounds and PQ during 24 h, FDA solution (50 μg/mL) was added to each well and the plate was incubated in the dark at 37 °C for 15 min. Cells were washed with phosphate buffer saline (PBS) (BioloT, S.-Peterburg, Russia) and fluorescence was measured with a Fluoroskan Ascent plate reader (Thermo Labsystems, Helsinki, Finland) at λex = 485 nm and λem = 518 nm. All manipulations with fluorescent probes were carried out in a darkened room. Cell viability was expressed as the percent of control.
# as §3
# Neuro-2a cells = experiment: Cytotoxicity toward Neuro-2a cells (MTT assay); type: cell-based, mouse; settings: Neuro-2a cells, 100 μM, MTT assay
# Method: as §1, §2
# [10] = compound 10 µM 1 h, then PQ 500 µM 24 h
# [11] = PQ-treated cells (PQ alone 500 µM)
Compound,decrease of fluorescence of PI-straining cells [1] [%],EC50 [2] [µM],"increase in the average number of neurites per cell [4, 10] [%]",increase of Hsp70 level in PQ-treated cells [5] [%],"activity at 24 h, 10 µM [6] [%]",IC50 at 24 h [6] [µM],effect on PQ-treated cell viability (MTT assay) [8],concentrations at which ROS content in PQ-treated cells was reduced ([7]; PQ 500 µM 1 h),further results
"CC(=O)O[C@H]1CC[C@@]2(C)[C@@H](C[C@@H]3O[C@]34[C@]23CC[C@]2(C)[C@@H]([C@H](C)CCC=C(C)C)CC[C@@]42C(=O)O3)C1(C)C [Compound 1, 3β-acetoxy-7β,8β-epoxy-5α-lanost-24-en-30,9α-olide]",16,> 100,16,62,92.1 ± 7.1,85.7 ± 2.4,,,"increase of intensity of TMRM fluorescence (PQ-induced mitochondrial dysfunction diminished) ([3]; compound 10 μM, PQ 500 µM 1 h): 37%; effect on the number of neurite-bearing PQ-treated cells ([4]; compound 10 µM, PQ 500 µM): did not show a statistical effect; effect on ROS level in PQ-treated cells ([7]; compound 1 and 10 µM, 1 h pre-treatment, PQ 500 µM 1 h): did not affect ROS level"
"O=C1O[C@H]([C@@H](O)CO)C(O)=C1O [Ascorbic acid, reference compound]",,20.5 ± 1.5,,,,,,,
"CC(C)=CCC[C@@H](C)[C@H]1CC[C@@]2(C(=O)O)C3=C(CC[C@]12C)[C@@]1(C)CCC(=O)[C@@H](C)[C@@H]1CC3 [Compound 3, 29-nor-penasterone]",,> 100,17,26,91.1 ± 4.1,> 100,did not show any effect,reduced ROS content only at a concentration of 10 μM,"effect on PQ-treated cell viability (FDA assay) ([9]; compound 1 and 10 µM, PQ 500 µM): did not show any effect; increase of neurites-bearing cell amount compared to PQ-treated control [4, 10]: 113%; death of cells (Neuro-2a cells): 37.4%"
"CC(C)=CCC[C@@H](C)[C@H]1CC[C@]23C(=O)O[C@]4(CC[C@]12C)[C@]31O[C@H]1C[C@H]1C(C)(C)[C@@H](O)CC[C@@]14C [Compound 2, 3β-hydroxy-7β,8β-epoxy-5α-lanost-24-en-30,9α-olide]",12,> 100,12,43,96.9 ± 1.1,> 100,did not show any effect,reduced ROS content only at a concentration of 10 μM,
"N,N-dimethyl-4,4-bipyridinium dichloride [PQ, reference compound]",,,,,,,,,"increase in the number of PI-straining cells ([1]; PQ alone, versus control): 35%; PQ-treated cell viability, % of control cells (MTT assay) ([8]; PQ alone 500 µM): 45.4%; PQ-treated cell viability, % of control cells (FDA assay) ([9]; PQ alone 500 µM): 62.2%; decrease of TMRM fluorescence ([3]; PQ alone, 1 h exposition): 30%; average length of neurites, less than control value by ([4]; PQ alone 500 µM, 24 h): 29%; number of neurites per cell, less than control value by ([4]; PQ alone 500 µM, 24 h): 14%; cells with neurites ([4]; PQ alone 500 µM, 24 h, control 30%): 10%; proportion of neurites with a length of 0–4.99 µm in the total number [4, 11]: 11.1%; proportion of neurites with a length of 10.00–14.99 µm in the total number [4, 11]: 16.6%; change of Hsp70 level in comparison with control cells ([5]; PQ alone 500 µM, 24 h): half-decrease; increase of ROS level compared to control cells ([7]; PQ alone 500 µM, within 1 h): 40%"
